IC50 data for 25 compounds are collected here from patent US11472791B2 (Incyte Corporation, priority 2019, dated 2022).

A value given as a limit tells only on which side of the number the result lay.

The experiment concerns the target CDK2/Cyclin E1 (Homo sapiens (Human), UniProt P24941). The experiment can be described thus: CDK2/Cyclin E1 HTRF enzyme activity assay. Format: biochemical. Conditions: 1 mM ATP. How it is done:
Assays are conducted in white 384-well polystyrene plates in a final reaction volume of 8 μL. […] HTRF signals are read after 1 hour at room temperature on a PHERAstar FS plate reader (BMG Labtech). Data is analyzed with IDBS XLFit and GraphPad Prism 5.0 software using a three or four parameter dose response curve to determine IC50 for each compound.
(In general: TR-FRET usually uses a lanthanide donor and a delayed reading to cut background.)
Turning to `Cc1cc(CN2CCN(C)CC2)ccc1-n1cc(-c2nc(NC3CCN(S(C)(=O)=O)CC3)ncc2C(F)(F)F)cn1` [Example 231, 4-(1-(2-Methyl-4-((4-methylpiperazin-1-yl)methyl)phenyl)-1H-pyrazol-4-yl)-N-(1-(methylsulfonyl)piperidin-4-yl)-5-(trifluoromethyl)pyrimidin-2-amine], the IC50 (usually the concentration that gives 50% inhibition) is less than 50 nM.

`Cc1nc(CN2CCN(C)CC2)ccc1-n1cc(-c2nc(NC3CCN(S(=O)(=O)c4cn(C)cn4)CC3)ncc2C(F)(F)F)cn1` [Example 252, N-(1-((1-Methyl-1H-imidazol-4-yl)sulfonyl)piperidin-4-yl)-4-(1-(2-methyl-6-((4-methylpiperazin-1-yl)methyl)pyridin-3-yl)-1H-pyrazol-4-yl)-5-(trifluoromethyl)pyrimidin-2-amine] registered an IC50 of less than 50 nM.

`C[C@@H]1CN(S(=O)(=O)C2CC2)CC[C@@H]1Nc1ncc(C(F)(F)F)c(-c2cnn(CC(C)(C)O)c2)n1` [Example 59, 1-(4-(2-(((3R,4S)-1-(Cyclopropylsulfonyl)-3-methylpiperidin-4-yl)amino)-5-(trifluoromethyl)pyrimidin-4-yl)-1H-pyrazol-1-yl)-2-methylpropan-2-ol] yielded an IC50 of less than 50 nM.

As for `C[C@]1(O)C[C@H](NCc2ccc(-n3cc(-c4nc(NC5CCN(S(=O)(=O)C6CC6)CC5)ncc4C#N)cn3)c(Cl)c2)C1` [Example 286, 4-(1-(2-Chloro-4-((((1r,3r)-3-hydroxy-3-methylcyclobutyl)amino)methyl)phenyl)-1H-pyrazol-4-yl)-2-((1-(cyclopropylsulfonyl)piperidin-4-yl)amino)pyrimidine-5-carbonitrile], the IC50 was less than 50 nM.

`CN1CCN(Cc2ccc(-n3cc(-c4nc(NC5CCN(S(C)(=O)=O)CC5)ncc4C#N)cn3)c(Cl)c2)CC1=O` [Example 240, 4-(1-(2-Chloro-4-((4-methyl-3-oxopiperazin-1-yl)methyl)phenyl)-1H-pyrazol-4-yl)-2-((1-(methylsulfonyl)piperidin-4-yl)amino)pyrimidine-5-carbonitrile]: the IC50 is less than 50 nM.

`CS(=O)(=O)N1CCC(Nc2ncc(C#N)c(-c3cnn(-c4ccc(CNCCOC(F)(F)F)cc4Cl)c3)n2)CC1` [Example 199, 4-(1-(2-Chloro-4-(((2-(trifluoromethoxy)ethyl)amino)methyl)phenyl)-1H-pyrazol-4-yl)-2-((1-(methylsulfonyl)piperidin-4-yl)amino)pyrimidine-5-carbonitrile] gave a half-inhibitory concentration (IC50) of less than 50 nM.

`N#Cc1cccc(S(=O)(=O)N2CCC(Nc3ncc(C(F)(F)F)c(-c4cnn(C5CCOCC5)c4)n3)CC2)c1` [Example 7, 3-((4-((4-(1-(Tetrahydro-2H-pyran-4-yl)-1H-pyrazol-4-yl)-5-(trifluoromethyl)pyrimidin-2-yl)amino)piperidin-1-yl)sulfonyl)benzo nitrile] yielded an IC50 of less than 50 nM.

As to `CS(=O)(=O)N1CCC(Nc2ncc(C#N)c(-c3cnn(-c4ccc(CN[C@H]5C[C@H](O)C5)cc4Cl)c3)n2)CC1` [Example 161, 4-(1-(2-Chloro-4-((((1r,3r)-3-hydroxycyclobutyl)amino)methyl)phenyl)-1H-pyrazol-4-yl)-2-((1-(methylsulfonyl)piperidin-4-yl)amino)pyrimidine-5-carbonitrile], the concentration for half-maximal inhibition (IC50) was less than 50 nM.

With `CN(C)C1CCC(S(=O)(=O)N2CCC(Nc3ncc(C(F)(F)F)c(-c4cnn(CC(C)(C)O)c4)n3)CC2)CC1` (single isomer, unassigned) [88 (peak 1), 1-(4-(2-((1-((4-(Dimethylamino)cyclohexyl)sulfonyl)piperidin-4-yl)amino)-5-(trifluoromethyl)pyrimidin-4-yl)-1H-pyrazol-1-yl)-2-methylpropan-2-ol], the half-inhibitory concentration (IC50) was less than 50 nM.

For the compound `CCN(CC)C1CCC(S(=O)(=O)N2CCC(Nc3ncc(C(F)(F)F)c(-c4cnn(CC(C)(C)O)c4)n3)CC2)CC1` (single isomer, unassigned) [89 (peak 2), 1-(4-(2-((1-((4-(Diethylamino)cyclohexyl)sulfonyl)piperidin-4-yl)amino)-5-(trifluoromethyl)pyrimidin-4-yl)-1H-pyrazol-1-yl)-2-methylpropan-2-ol], the IC50 was less than 50 nM.

For the compound `N#CCS(=O)(=O)N1CCC(Nc2ncc(C(F)(F)F)c(-c3cnn(C4CCOCC4)c3)n2)CC1` [Example 4, 2-((4-((4-(1-(Tetrahydro-2H-pyran-4-yl)-1H-pyrazol-4-yl)-5-(trifluoromethyl)pyrimidin-2-yl)amino)piperidin-1-yl)sulfonyl)acetonitrile], the half-maximal inhibitory concentration (IC50) is less than 50 nM.

Turning to `Cc1cc(CN2CCN(C)CC2)ccc1-n1cc(-c2nc(NC3CCN(S(=O)(=O)C4CC4)CC3)ncc2C#N)cn1` [Example 242, 2-((1-(Cyclopropylsulfonyl)piperidin-4-yl)amino)-4-(1-(2-methyl-4-((4-methylpiperazin-1-yl)methyl)phenyl)-1H-pyrazol-4-yl)pyrimidine-5-carbonitrile], the IC50 was less than 50 nM.

On to `C[C@@H]1CN(S(=O)(=O)c2cnn(C)c2)CC[C@@H]1Nc1ncc(C(F)(F)F)c(-c2cnn(CC(C)(C)O)c2)n1` [Example 60, 2-Methyl-1-(4-(2-(((3R,4S)-3-methyl-1-((1-methyl-1H-pyrazol-4-yl)sulfonyl)piperidin-4-yl)amino)-5-(trifluoromethyl)pyrimidin-4-yl)-1H-pyrazol-1-yl)propan-2-ol], for which the IC50 was less than 50 nM.

For the compound `CCNCc1ccc(-n2cc(-c3nc(NC4CCN(S(=O)(=O)c5cn(C)cn5)CC4)ncc3C(F)(F)F)cn2)c(C)n1` [Example 269, 4-(1-(6-((Ethylamino)methyl)-2-methylpyridin-3-yl)-1H-pyrazol-4-yl)-N-(1-((1-methyl-1H-imidazol-4-yl)sulfonyl)piperidin-4-yl)-5-(trifluoromethyl)pyrimidin-2-amine], the half-maximal inhibitory concentration (IC50) was less than 50 nM.

As for `[2H]C([2H])([2H])NCc1ccc(-n2cc(-c3nc(NC4CCN(S(=O)(=O)C5CC5)CC4)ncc3Cl)cn2)c(Cl)c1` [Example 135, 5-Chloro-4-(1-(2-chloro-4-(((methyl-d3)amino)methyl)phenyl)-1H-pyrazol-4-yl)-N-(1-(cyclopropylsulfonyl)piperidin-4-yl)pyrimidin-2-amine], the 50% inhibitory concentration (IC50) was less than 50 nM.

`CCN1CCN(Cc2ccc(-n3cc(-c4nc(NC5CCN(S(C)(=O)=O)CC5)ncc4C(F)(F)F)cn3)c(C)c2)CC1` [Example 232, 4-(1-(4-((4-Ethylpiperazin-1-yl)methyl)-2-methylphenyl)-1H-pyrazol-4-yl)-N-(1-(methylsulfonyl)piperidin-4-yl)-5-(trifluoromethyl)pyrimidin-2-amine] yielded a half-inhibitory concentration (IC50) of less than 50 nM.

For `CCNCc1ccc(-n2cc(-c3nc(NC4CCN(S(=O)(=O)CC)CC4)ncc3C#N)cn2)c(C)n1` [Example 125, 4-(1-(6-((Ethylamino)methyl)-2-methylpyridin-3-yl)-1H-pyrazol-4-yl)-2-((1-(ethylsulfonyl)piperidin-4-yl)amino)pyrimidine-5-carbonitrile], the IC50 is less than 50 nM.

As to `CCS(=O)(=O)N1CCC(Nc2ncc(C#N)c(-c3cnn(-c4ccc(CNC)cc4Cl)c3)n2)CC1` [Example 112, 4-(1-(2-Chloro-4-((methylamino)methyl)phenyl)-1H-pyrazol-4-yl)-2-((1-(ethylsulfonyl)piperidin-4-yl)amino)pyrimidine-5-carbonitrile], the half-maximal inhibitory concentration (IC50) was less than 50 nM.

Compound `Cc1nc(CN[C@]2(C)C[C@H](O)C2)ccc1-n1cc(-c2nc(NC3CCN(S(C)(=O)=O)CC3)ncc2C#N)cn1` [Example 265] gave an IC50 of less than 50 nM.

In turn, `CC(C)(O)Cn1cc(-c2nc(NC3CCN(S(=O)(=O)CCCN4CC[C@@](C)(O)C4)CC3)ncc2C(F)(F)F)cn1` [Example 223, (R)-1-(3-((4-((4-(1-(2-Hydroxy-2-methylpropyl)-1H-pyrazol-4-yl)-5-(trifluoromethyl)pyrimidin-2-yl)amino)piperidin-1-yl)sulfonyl)propyl)-3-methylpyrrolidin-3-ol] returned an IC50 of less than 50 nM.

On to `CC(C)(O)Cn1cc(-c2nc(NC3CCN(S(=O)(=O)CCCCN4CCCC4)CC3)ncc2C(F)(F)F)cn1` [Example 80, 2-Methyl-1-(4-(2-((1-((4-(pyrrolidin-1-yl)butyl)sulfonyl)piperidin-4-yl)amino)-5-(trifluoromethyl)pyrimidin-4-yl)-1H-pyrazol-1-yl)propan-2-ol], for which the half-inhibitory concentration (IC50) was less than 50 nM.

In turn, `[2H]C(NC([2H])([2H])[2H])c1ccc(-n2cc(-c3nc(NC4CCN(S(=O)(=O)CC)CC4)ncc3C#N)cn2)c(Cl)c1` (stereo not shown) [Example 140, 4-(1-(2-Chloro-4-(((methyl-d3)amino)methyl-d)phenyl)-1H-pyrazol-4-yl)-2-((1-(ethylsulfonyl)piperidin-4-yl)amino)pyrimidine-5-carbonitrile] gave an IC50 of less than 50 nM.

As to `CCS(=O)(=O)N1CCC(Nc2ncc(C#N)c(-c3cnn(-c4ccc(CN5CCN(C)CC5)cc4Cl)c3)n2)CC1` [Example 239, 4-(1-(2-chloro-4-((4-methylpiperazin-1-yl)methyl)phenyl)-1H-pyrazol-4-yl)-2-((1-(ethylsulfonyl)piperidin-4-yl)amino)pyrimidine-5-carbonitrile], the IC50 is less than 50 nM.

Compound `[2H]C([2H])([2H])NCc1ccc(-n2cc(-c3nc(N[C@H]4CCN(S(=O)(=O)C5CC5)C[C@H]4F)ncc3C(F)(F)F)cn2)c(C)c1` [Example 133, N-((3R,4S)-1-(Cyclopropylsulfonyl)-3-fluoropiperidin-4-yl)-4-(1-(2-methyl-4-(((methyl-d3)amino)methyl)phenyl)-1H-pyrazol-4-yl)-5-(trifluoromethyl)pyrimidin-2-amine] showed a half-maximal inhibitory concentration (IC50) of less than 50 nM.

With `CC(C)(O)Cn1cc(-c2nc(NC3CCN(S(=O)(=O)CCCN4CCNC(=O)C4)CC3)ncc2C(F)(F)F)cn1` [Example 69, 4-(3-((4-((4-(1-(2-Hydroxy-2-methylpropyl)-1H-pyrazol-4-yl)-5-(trifluoromethyl)pyrimidin-2-yl)amino)piperidin-1-yl)sulfonyl)propyl)piperazin-2-one], the IC50 is less than 50 nM.
